Source: the supplement of paper PMC10307832

Legend:
Test in all cases: relative viability (nuclei count vs DMSO), 5 days (fraction); higher = more cells survive
BAM7 + Phenformin = compound: CCOC1=CC=CC=C1N=NC2=C(NN(C2=O)C3=NC(=CS3)C4=CC=CC=C4)C [BAM7] + N=C(N)NC(=N)NCCc1ccccc1 [Phenformin] (partner 250 µM)
Summary of the method: (§1)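 Lung cancer cell lines were pin-tool dosed in 1536-well plates on the day after seeding, with either a lone drug or a fixed anchor-drug dose plus five library-drug doses (not always all listed) in √10 steps. Nuclei were counted on 4× images after 5 days. Relative viability is the ratio of treated-well to vehicle-well nuclei counts, with each value a median of duplicate plates.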

[1] = compound: CCn1c(-c2nonc2N)nc2c(C#CC(C)(C)O)ncc(OC[C@H]3CCCNC3)c21 + CS(=O)(=O)CCNCc1ccc(-c2ccc3ncnc(Nc4ccc(OCc5cccc(F)c5)c(Cl)c4)c3c2)o1 [Lapatinib] (partner 2 µM)
Summary of the method: as §1

BAM7 + Vorinostat = compound: CCOC1=CC=CC=C1N=NC2=C(NN(C2=O)C3=NC(=CS3)C4=CC=CC=C4)C [BAM7] + O=C(CCCCCCC(=O)Nc1ccccc1)NO [Vorinostat] (partner 1 µM)
Summary of the method: as §1

[2] = compound: CCn1c(-c2nonc2N)nc2c(C#CC(C)(C)O)ncc(OC[C@H]3CCCNC3)c21 + O=C(CCCCCCC(=O)Nc1ccccc1)NO [Vorinostat] (partner 1 µM)
Summary of the method: as §1

Cell Line: RERF-LC-KJ
- relative viability (BAM7 + Phenformin; first compound 0.5 µM): 0.357
- relative viability (BAM7 + Phenformin; first compound 5 µM): 0.35
- relative viability (BAM7 + Phenformin; first compound 15.81 µM): 0.29
- relative viability (BAM7 + Phenformin; first compound 50 µM): 0.328
- relative viability ([1]; first compound 0.01 µM): 0.873
- relative viability ([1]; first compound 0.03162 µM): 0.743
- relative viability ([1]; first compound 0.1 µM): 0.814
- relative viability ([1]; first compound 0.3162 µM): 0.832
- relative viability ([1]; first compound 1 µM): 0.926
- relative viability (BAM7 + Vorinostat; first compound 0.5 µM): 0.62
- relative viability (BAM7 + Vorinostat; first compound 5 µM): 0.601
- relative viability (BAM7 + Vorinostat; first compound 15.81 µM): 0.485
- relative viability (BAM7 + Vorinostat; first compound 50 µM): 0.416
- relative viability ([2]; first compound 0.01 µM): 0.665
- relative viability ([2]; first compound 0.03162 µM): 0.595
- relative viability ([2]; first compound 0.1 µM): 0.684
- relative viability ([2]; first compound 0.3162 µM): 0.574
- relative viability ([2]; first compound 1 µM): 0.628

Cell Line: LXF-289
- relative viability (BAM7 + Phenformin; first compound 0.5 µM): 0.556
- relative viability (BAM7 + Phenformin; first compound 5 µM): 0.552
- relative viability (BAM7 + Phenformin; first compound 15.81 µM): 0.524
- relative viability (BAM7 + Phenformin; first compound 50 µM): 0.516
- relative viability ([1]; first compound 0.01 µM): 0.921
- relative viability ([1]; first compound 0.03162 µM): 0.891
- relative viability ([1]; first compound 0.1 µM): 0.934
- relative viability ([1]; first compound 0.3162 µM): 0.871
- relative viability ([1]; first compound 1 µM): 0.88
- relative viability (BAM7 + Vorinostat; first compound 0.5 µM): 0.82
- relative viability (BAM7 + Vorinostat; first compound 5 µM): 0.92
- relative viability (BAM7 + Vorinostat; first compound 15.81 µM): 0.84
- relative viability (BAM7 + Vorinostat; first compound 50 µM): 0.7
- relative viability ([2]; first compound 0.01 µM): 0.822
- relative viability ([2]; first compound 0.03162 µM): 0.791
- relative viability ([2]; first compound 0.1 µM): 0.737
- relative viability ([2]; first compound 0.3162 µM): 0.737
- relative viability ([2]; first compound 1 µM): 0.808

Cell Line: PC-14
- relative viability (BAM7 + Phenformin; first compound 0.5 µM): 0.619
- relative viability (BAM7 + Phenformin; first compound 5 µM): 0.558
- relative viability (BAM7 + Phenformin; first compound 15.81 µM): 0.588
- relative viability (BAM7 + Phenformin; first compound 50 µM): 0.591
- relative viability ([1]; first compound 0.01 µM): 0.314
- relative viability ([1]; first compound 0.03162 µM): 0.406
- relative viability ([1]; first compound 0.1 µM): 0.319
- relative viability ([1]; first compound 0.3162 µM): 0.246
- relative viability ([1]; first compound 1 µM): 0.291
- relative viability (BAM7 + Vorinostat; first compound 0.5 µM): 0.86
- relative viability (BAM7 + Vorinostat; first compound 5 µM): 0.616
- relative viability (BAM7 + Vorinostat; first compound 15.81 µM): 0.697
- relative viability (BAM7 + Vorinostat; first compound 50 µM): 0.7
- relative viability ([2]; first compound 0.01 µM): 0.68
- relative viability ([2]; first compound 0.03162 µM): 0.742
- relative viability ([2]; first compound 0.1 µM): 0.722
- relative viability ([2]; first compound 0.3162 µM): 0.556
- relative viability ([2]; first compound 1 µM): 0.461

Cell Line: NCI-H650
- relative viability (BAM7 + Phenformin; first compound 0.5 µM): 0.443
- relative viability (BAM7 + Phenformin; first compound 5 µM): 0.506
- relative viability (BAM7 + Phenformin; first compound 15.81 µM): 0.499
- relative viability (BAM7 + Phenformin; first compound 50 µM): 0.495
- relative viability ([1]; first compound 0.01 µM): 0.733
- relative viability ([1]; first compound 0.03162 µM): 0.838
- relative viability ([1]; first compound 0.1 µM): 0.783
- relative viability ([1]; first compound 0.3162 µM): 0.753
- relative viability ([1]; first compound 1 µM): 0.741
- relative viability (BAM7 + Vorinostat; first compound 0.5 µM): 0.541
- relative viability (BAM7 + Vorinostat; first compound 5 µM): 0.531
- relative viability (BAM7 + Vorinostat; first compound 15.81 µM): 0.518
- relative viability (BAM7 + Vorinostat; first compound 50 µM): 0.492
- relative viability ([2]; first compound 0.01 µM): 0.435
- relative viability ([2]; first compound 0.03162 µM): 0.384
- relative viability ([2]; first compound 0.1 µM): 0.393
- relative viability ([2]; first compound 0.3162 µM): 0.423
- relative viability ([2]; first compound 1 µM): 0.396

Cell Line: NCI-H1666
- relative viability (BAM7 + Phenformin; first compound 0.5 µM): 0.592
- relative viability (BAM7 + Phenformin; first compound 5 µM): 0.588
- relative viability (BAM7 + Phenformin; first compound 15.81 µM): 0.588
- relative viability (BAM7 + Phenformin; first compound 50 µM): 0.563
- relative viability ([1]; first compound 0.01 µM): 0.552
- relative viability ([1]; first compound 0.03162 µM): 0.487
- relative viability ([1]; first compound 0.1 µM): 0.469
- relative viability ([1]; first compound 0.3162 µM): 0.521
- relative viability ([1]; first compound 1 µM): 0.508
- relative viability (BAM7 + Vorinostat; first compound 0.5 µM): 1.08
- relative viability (BAM7 + Vorinostat; first compound 5 µM): 0.944
- relative viability (BAM7 + Vorinostat; first compound 15.81 µM): 1.01
- relative viability (BAM7 + Vorinostat; first compound 50 µM): 1.05
- relative viability ([2]; first compound 0.01 µM): 1.02
- relative viability ([2]; first compound 0.03162 µM): 1.07
- relative viability ([2]; first compound 0.1 µM): 0.986
- relative viability ([2]; first compound 0.3162 µM): 1
- relative viability ([2]; first compound 1 µM): 0.942

Cell Line: NCI-H2085
- relative viability (BAM7 + Phenformin; first compound 0.5 µM): 0.691
- relative viability (BAM7 + Phenformin; first compound 5 µM): 0.619
- relative viability (BAM7 + Phenformin; first compound 15.81 µM): 0.625
- relative viability (BAM7 + Phenformin; first compound 50 µM): 0.711
- relative viability ([1]; first compound 0.01 µM): 0.8
- relative viability ([1]; first compound 0.03162 µM): 0.7
- relative viability ([1]; first compound 0.1 µM): 0.601
- relative viability ([1]; first compound 0.3162 µM): 0.574
- relative viability ([1]; first compound 1 µM): 0.573
- relative viability (BAM7 + Vorinostat; first compound 0.5 µM): 0.824
- relative viability (BAM7 + Vorinostat; first compound 5 µM): 0.654
- relative viability (BAM7 + Vorinostat; first compound 15.81 µM): 0.74
- relative viability (BAM7 + Vorinostat; first compound 50 µM): 0.822
- relative viability ([2]; first compound 0.01 µM): 0.822
- relative viability ([2]; first compound 0.03162 µM): 0.785
- relative viability ([2]; first compound 0.1 µM): 0.785
- relative viability ([2]; first compound 0.3162 µM): 0.712
- relative viability ([2]; first compound 1 µM): 0.796

Cell Line: NCI-H1734
- relative viability (BAM7 + Phenformin; first compound 0.5 µM): 0.41
- relative viability (BAM7 + Phenformin; first compound 5 µM): 0.491
- relative viability (BAM7 + Phenformin; first compound 15.81 µM): 0.392
- relative viability (BAM7 + Phenformin; first compound 50 µM): 0.401
- relative viability ([1]; first compound 0.01 µM): 1.01
- relative viability ([1]; first compound 0.03162 µM): 1.02
- relative viability ([1]; first compound 0.1 µM): 0.896
- relative viability ([1]; first compound 0.3162 µM): 0.885
- relative viability ([1]; first compound 1 µM): 0.825
- relative viability (BAM7 + Vorinostat; first compound 0.5 µM): 0.841
- relative viability (BAM7 + Vorinostat; first compound 5 µM): 0.903
- relative viability (BAM7 + Vorinostat; first compound 15.81 µM): 0.812
- relative viability (BAM7 + Vorinostat; first compound 50 µM): 0.832
- relative viability ([2]; first compound 0.01 µM): 0.773
- relative viability ([2]; first compound 0.03162 µM): 0.857
- relative viability ([2]; first compound 0.1 µM): 0.744
- relative viability ([2]; first compound 0.3162 µM): 0.7
- relative viability ([2]; first compound 1 µM): 0.74

Cell Line: NCI-H2126
- relative viability (BAM7 + Phenformin; first compound 0.5 µM): 0.494
- relative viability (BAM7 + Phenformin; first compound 5 µM): 0.54
- relative viability (BAM7 + Phenformin; first compound 15.81 µM): 0.473
- relative viability (BAM7 + Phenformin; first compound 50 µM): 0.556
- relative viability ([1]; first compound 0.01 µM): 0.779
- relative viability ([1]; first compound 0.03162 µM): 0.773
- relative viability ([1]; first compound 0.1 µM): 0.641
- relative viability ([1]; first compound 0.3162 µM): 0.731
- relative viability ([1]; first compound 1 µM): 0.755
- relative viability (BAM7 + Vorinostat; first compound 0.5 µM): 0.719
- relative viability (BAM7 + Vorinostat; first compound 5 µM): 0.597
- relative viability (BAM7 + Vorinostat; first compound 15.81 µM): 0.635
- relative viability (BAM7 + Vorinostat; first compound 50 µM): 0.664
- relative viability ([2]; first compound 0.01 µM): 0.754
- relative viability ([2]; first compound 0.03162 µM): 0.743
- relative viability ([2]; first compound 0.1 µM): 0.791
- relative viability ([2]; first compound 0.3162 µM): 0.741
- relative viability ([2]; first compound 1 µM): 0.792

Cell Line: EMC-BAC-2
- relative viability (BAM7 + Phenformin; first compound 0.5 µM): 0.567
- relative viability (BAM7 + Phenformin; first compound 5 µM): 0.533
- relative viability (BAM7 + Phenformin; first compound 15.81 µM): 0.535
- relative viability (BAM7 + Phenformin; first compound 50 µM): 0.61
- relative viability ([1]; first compound 0.01 µM): 0.871
- relative viability ([1]; first compound 0.03162 µM): 0.83
- relative viability ([1]; first compound 0.1 µM): 0.866
- relative viability ([1]; first compound 0.3162 µM): 0.88
- relative viability ([1]; first compound 1 µM): 0.938
- relative viability (BAM7 + Vorinostat; first compound 0.5 µM): 0.478
- relative viability (BAM7 + Vorinostat; first compound 5 µM): 0.485
- relative viability (BAM7 + Vorinostat; first compound 15.81 µM): 0.658
- relative viability (BAM7 + Vorinostat; first compound 50 µM): 0.483
- relative viability ([2]; first compound 0.01 µM): 0.203
- relative viability ([2]; first compound 0.1 µM): 0.448
- relative viability ([2]; first compound 0.3162 µM): 0.429
- relative viability ([2]; first compound 1 µM): 0.448
